{"source": "patent US20240173371A1", "about": "“RHODIOLA CRENULATA COMPOSITIONS AND METHODS OF MAKING THE SAME” (NutriScience Innovations LLC, priority 2022, published 2024)", "origin": "cited, not measured here", "key": {"[1]": {"system": "CD3+T cells and CD4+T helper cells", "settings": "Wistar male rats, supplementation"}, "[2]": {"settings": "rats, oral, 20 and 40 mg/kg over two weeks"}, "[3]": {"settings": "rats, oral, 20 and 40 mg/kg over two weeks", "remark": "listed apart in the source"}}}
{"smiles": "OC[C@H]1O[C@@H](OCCc2ccc(O)cc2)[C@H](O)[C@@H](O)[C@@H]1O", "note": "[salidroside]", "values": [{"measurement": "CD4+T helper cells", "setting": "[1]", "result": "increased"}, {"measurement": "total CD3+T cells", "setting": "[1]", "result": "increased"}, {"measurement": "olfactory-bulbectomy-induced hyperactivity", "setting": "[2]", "result": "alleviated"}, {"measurement": "outcome of a forced swim test", "setting": "[3]", "result": "improved"}]}
